Reference: paper PMC10609081, “In Vivo Trafficking of the Anticancer Drug Tris(8-Quinolinolato) Gallium (III) (KP46) by Gallium-68/67 PET/SPECT Imaging” (Molecules, 2023)

Legend:
[1] = Distribution/partition coefficients (logD, logP), shake flask with gamma counting; format: physicochemical; details: tracer level, mean ± SD
Description: Tracer-level [^68Ga]KP46 and [^68Ga]Ga-acetate solutions (5–20 µL, 0.3–0.5 MBq) were added to a pre-equilibrated mixture (500 µL/500 µL) of octanol/water (for logP measurement) or octanol/PBS (for logD7.4 measurement). Samples were vortexed for two minutes in a Multi Vortex Mixer V-32 (Grant Bio). From each layer, a sample of 200 µL was taken and its radioactivity measured using a gamma counter.

[2] = biological target: T1, human serum albumin (HSA) (Homo sapiens, UniProt P02768); assay: Binding to human serum albumin by size exclusion chromatography (PD MidiTrap G-25); format: in vitro ADME
T1 construct: purchased Sigma Aldrich
Description: Solutions of human apo-transferrin (apo-Tf, 2 mg/mL) and human serum albumin (HSA, 50 mg/mL) (both purchased from Sigma Aldrich) were dissolved in aqueous NaHCO3 (5 mM, pH = 8) and PBS (pH = 7.4), respectively. An amount of 1 MBq of tracer-level [^68Ga]KP46 (13–20 µL) or [^68Ga]gallium acetate (20–25 µL) was added to 1.2 mL of the apo-Tf solution and to a similar apo-Tf-free NaHCO3 solution (control). Similarly, [^68Ga]KP46 and [^68Ga]gallium acetate solutions were added to 1.5 mL PBS containing HSA or HSA-free PBS (control). The samples were incubated for 60 min at 37 °C (pH = 7–7.5). From each mixture, 0.5 mL was loaded into PD MidiTrap G-25 size exclusion chromatography cartridges that were preconditioned with 8 mL of NaHCO3 (5 mM) (for apo-Tf binding) or PBS (for HSA binding). Fractions (0.5 mL) were collected and counted with a Wallac gamma counter. Protein absorbance at 280 nm was measured using a Nanodrop spectrophotometer. To investigate the speciation of the Ga–KP46 complex in the presence of apo-Tf at later time points (up to 48 h), the experiment was repeated with ^67Ga.

[3] = PET imaging and ex vivo biodistribution 4 h after oral administration of [68Ga]KP46, tracer (group C) and bulk (group D); format: in vivo, mice; details: n = 3
Description: The tracer-level samples for oral administration were prepared in the same manner but with 20 μL of KP46-free DMSO in place of the KP46 solution in DMSO.
All animal experiments were performed in accordance with the Animals (Scientific Procedures) Act, 1986, with protocols approved by the Animal Welfare and Ethical Review Body for King’s College London under project and personal licences approved by the UK Home Office. Tumour xenograft studies were performed on female NSG mice or female athymic nude mice after injecting them subcutaneously in the right shoulder with 2.5 × 10^6 A375 cells in 100 µL of PBS. All in vivo studies were conducted between 14 and 24 days after inoculation, with tumour volumes between 100 mm^3 and 580 mm^3 (see Supplementary Materials, Figure S11).
Oral [^68/67Ga]KP46: The protocol for oral administration experiments reported here was devised on the basis of pilot experiments described in Supplementary Materials (Figure S12). For short-term (up to 4 h) studies with ^68Ga, awake (nonanaesthetised, to avoid suppressive effects of anaesthesia on digestive tract activity) mice that had been fasted for up to 14 h were given [^68Ga]KP46 (5–13 MBq) (group C, “tracer”, n = 3) or [^68Ga]KP46 and KP46 (5–8.5 MBq) (group D, “bulk”, n = 3) by oral gavage. The dose given orally to group D animals, prepared as described above, was 0.4 μmol in 400 μL, molar activity ca. 25 MBq/μmol. The mice were fasted for three hours before being anaesthetised and PET/CT scanned dynamically for one hour (see below for scanning protocol). After scanning, mice in both groups were culled by neck dislocation while still anaesthetised four hours post-oral administration for organ harvesting and gamma counting. Samples of blood, urine and contents of stomach, small intestine and large intestine (the organs/tissue with measurable activity; tumours were not included as they were insufficiently radioactive) from the mice in group C were used for octanol extraction (shake-flask method) to separate water-soluble (released) and lipid-soluble (intact KP46) ^68Ga. Serum samples were prepared by placing blood samples in a serum separator tube (brand VS367954, Fisher Scientific Ltd., Loughborough, UK) and centrifuging at 3000 rpm for 10 min. Serum (200–300 µL) and urine samples (150–180 µL, taken from the excised bladders) were directly added to Eppendorf tubes containing a pre-equilibrated mixture of octanol (500 µL) and water (500 µL). The tubes were vortexed for two minutes on a Multi Vortex Mixer V-32 (Grant Bio). After separation of layers, a sample of 400 µL from each layer was transferred to fresh Eppendorf tubes and analysed with a gamma counter. Stomach content (72–77 mg), small intestine content (35–88 mg), and large intestine content (86–100 mg) samples from each mouse were analysed similarly by adding them directly to Eppendorf tubes containing a pre-equilibrated mixture of octanol (500 µL) and water (500 µL) before vortexing and centrifuging at 10,000 rpm for 10 min at 4 °C. From each layer, 430 µL was transferred to fresh Eppendorf tubes and analysed with a gamma counter; the solid residues were also counted. Tissues from mice in group D were used after radioactive decay for measurements of nonradioactive ^69Ga content.
PET/CT images were acquired with a nanoScan® PET/CT (Mediso Medical Imaging Systems, Budapest, Hungary) scanner operating in list mode using a 400–600 keV energy window and a coincidence window of 1:3. CT scans were acquired for anatomical reference and attenuation correction (55 keV X-ray, exposure time 1000 ms, and 360 projections and pitch 1). PET projection data were reconstructed using the Tera-tomo® software package provided with the scanner —a Monte Carlo-based fully 3D iterative algorithm with four iterations, six subsets, and 0.4 mm isotropic voxel size; corrections for attenuation, scatter, and dead-time were enabled. […]

T1 sequence (P02768 25-609): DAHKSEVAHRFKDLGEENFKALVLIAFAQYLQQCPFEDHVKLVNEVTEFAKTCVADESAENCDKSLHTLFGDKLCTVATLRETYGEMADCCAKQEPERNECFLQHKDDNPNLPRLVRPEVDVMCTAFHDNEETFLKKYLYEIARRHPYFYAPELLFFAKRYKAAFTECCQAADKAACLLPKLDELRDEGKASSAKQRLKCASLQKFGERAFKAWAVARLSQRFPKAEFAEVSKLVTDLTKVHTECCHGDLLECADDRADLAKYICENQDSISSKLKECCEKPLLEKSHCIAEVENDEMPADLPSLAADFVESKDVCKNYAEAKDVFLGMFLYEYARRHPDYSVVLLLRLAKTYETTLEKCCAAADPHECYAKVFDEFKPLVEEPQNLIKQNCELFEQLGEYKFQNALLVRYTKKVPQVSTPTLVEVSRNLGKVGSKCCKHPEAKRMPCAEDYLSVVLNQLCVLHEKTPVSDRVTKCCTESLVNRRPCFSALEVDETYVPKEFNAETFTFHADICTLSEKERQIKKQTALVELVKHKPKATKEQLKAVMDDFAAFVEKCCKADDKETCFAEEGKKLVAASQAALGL

SMILES: [68Ga+3].[O-]c1cccc2cccnc12.[O-]c1cccc2cccnc12.[O-]c1cccc2cccnc12 [[^68Ga]KP46]
- logD(octanol/PBS) ([1]; octanol/PBS): 1.90 ± 0.19
- logP(octanol/water) ([1]; octanol/water): 2.33 ± 0.28
- radioactivity coeluting with HSA ([2]; 1 h incubation at 37 °C, HSA 50 mg/mL in PBS): about 16%
- binding of radioactivity to HSA ([2]; incubated 1 h with HSA): significant binding
- 68Ga activity delivered to tumour ([3]; bulk (group D)): 0.5 ± 0.3 %ID/g
- 68Ga activity in small intestine ([3]; bulk (group D)): 18.4 ± 5 %ID/g
- 68Ga activity in stomach ([3]; bulk (group D)): 11.9 ± 8.1 %ID/g
- 68Ga activity in large intestine ([3]; bulk (group D, combined with KP46 0.4 μmol)): 56.5 ± 21.4 %ID/g
- uptake in large intestine, ex vivo ([3]; tracer level (group C)): 61.7 ± 21.5 %ID/g
- uptake in small intestine, ex vivo ([3]; tracer level (group C)): 12.8 ± 4.1 %ID/g
